From ChEMBL document CHEMBL4808181, “Hydrophobic Pocket Occupation Design of Difluoro-Biphenyl-Diarylpyrimidines as Non-Nucleoside HIV-1 Reverse Transcriptase Inhibitors: from N-Alkylation to Methyl Hopping on the Pyrimidine Ring” (J Med Chem, 2021)

Assays:
[1] = Metabolic stability in mouse liver microsomes; format: ADME, Microsome
[2] = molecular target: Human immunodeficiency virus type 1 reverse transcriptase (Human immunodeficiency virus 1, UniProt Q72547, L100I); assay: Inhibition of HIV-1 p66/p51 reverse transcriptase L100I mutant incubated for 40 mins by picogreen dye-based spectrofluorometric analysis
[3] = Acute toxicity in pregnant mouse assessed as death at 2 g/kg, ig; settings: in vivo, po, 2000 mg/kg
[4] = Toxicity in healthy female mouse assessed as liver damage at 2 g/kg, ig monitored for 2 weeks by HE staining based assay; format: tissue-based; settings: in vivo, po, 2000 mg/kg, 336 h
[5] = Toxicity in healthy female mouse assessed as brain damage at 2 g/kg, ig monitored for 2 weeks by HE staining based assay; format: tissue-based; settings: in vivo, po, 2000 mg/kg, 336 h
[6] = Selectivity index, ratio of CC50 for cytotoxicity against human MT-4 cells to EC50 for inhibition of HIV-1 p66/51 reverse transcriptase L100I mutant; format: toxicity, cell-based; settings: read-out: Ratio CC50/EC50
[7] = MRTinfinity in Wistar rat at 1 mg/kg, iv; format: ADME, organism-based; settings: in vivo
[8] = Metabolic stability in rat liver microsomes assessed as intrinsic clearance per mg protein; format: ADME, Microsome
[9] = Toxicity in pregnant mouse assessed as lung damage at 2 g/kg, ig monitored for 2 weeks by HE staining based assay; format: tissue-based; settings: in vivo, po, 2000 mg/kg, 336 h
[10] = Metabolic stability in rat liver microsomes assessed as half life; format: ADME, Microsome
[11] = Acute toxicity in pregnant mouse assessed as offspring survival rate at 2 g/kg, ig; settings: in vivo, po, 2000 mg/kg
[12] = Toxicity in healthy female mouse assessed as heart damage at 2 g/kg, ig monitored for 2 weeks by HE staining based assay; format: tissue-based; settings: in vivo, po, 2000 mg/kg, 336 h
[13] = Acute toxicity in pregnant mouse assessed as behavioral abnormalities at 2 g/kg, ig measured for 2 weeks; settings: in vivo, po, 2000 mg/kg, 336 h
[14] = Acute toxicity in pregnant mouse assessed as abortion at 2 g/kg, ig; settings: in vivo, po, 2000 mg/kg
[15] = Half life in Wistar rat at 1 mg/kg, iv; format: ADME, organism-based; settings: in vivo
[16] = Toxicity in pregnant mouse assessed as kidney damage at 2 g/kg, ig monitored for 2 weeks by HE staining based assay; format: tissue-based; settings: in vivo, po, 2000 mg/kg, 336 h
[17] = Toxicity in healthy female mouse assessed as lung damage at 2 g/kg, ig monitored for 2 weeks by HE staining based assay; format: tissue-based; settings: in vivo, po, 2000 mg/kg, 336 h
[18] = Metabolic stability in mouse liver microsomes assessed as intrinsic clearance per mg protein; format: ADME, Microsome
[19] = Half life in Wistar rat at 5 mg/kg, po; format: ADME, organism-based; settings: in vivo
[20] = Acute toxicity in healthy female mouse assessed as increase in body weight at 2 g/kg, ig; settings: in vivo, po, 2000 mg/kg
[21] = Acute toxicity in healthy female mouse assessed as behavioral abnormalities at 2 g/kg, ig measured for 2 weeks; settings: in vivo, po, 2000 mg/kg, 336 h
[22] = molecular target: Human immunodeficiency virus type 1 reverse transcriptase (Human immunodeficiency virus 1, UniProt Q72547); assay: Inhibition of recombinant wild type p66/p51 HIV1 reverse transcriptase incubated for 40 mins by picogreen dye-based spectrofluorometric analysis
[23] = Metabolic stability in mouse liver microsomes assessed as half life; format: ADME, Microsome
[24] = Metabolic stability in rat liver microsomes; format: ADME, Microsome
[25] = Selectivity index, ratio of CC50 for cytotoxicity against human MT-4 cells to EC50 for inhibition of HIV-1 p66/51 reverse transcriptase E138K mutant; format: toxicity, cell-based; settings: read-out: Ratio CC50/EC50
[26] = molecular target: Human immunodeficiency virus type 1 reverse transcriptase (Human immunodeficiency virus 1, UniProt Q72547, Y181C); assay: Inhibition of HIV-1 p66/p51 reverse transcriptase Y181C mutant incubated for 40 mins by picogreen dye-based spectrofluorometric analysis
[27] = Acute toxicity in pregnant mouse assessed as stillborn fetus at 2 g/kg, ig; settings: in vivo, po, 2000 mg/kg
[28] = Tmax in Wistar rat at 5 mg/kg, po; format: ADME, organism-based; settings: in vivo
[29] = MRTinfinity in Wistar rat at 5 mg/kg, po; format: ADME, organism-based; settings: in vivo
[30] = AUCinfinity in Wistar rat at 5 mg/kg, po; format: ADME, organism-based; parameters: route oral, time infinity, dose 5 mg/kg; settings: in vivo
[31] = Metabolic stability in human liver microsomes assessed as intrinsic clearance per mg protein; format: ADME, Microsome; settings: read-out: CLH
[32] = Toxicity in pregnant mouse assessed as brain damage at 2 g/kg, ig monitored for 2 weeks by HE staining based assay; format: tissue-based; settings: in vivo, po, 2000 mg/kg, 336 h
[33] = Acute toxicity in healthy mouse assessed as death at 2 g/kg, ig; settings: in vivo, po, 2000 mg/kg
[34] = test system: Human immunodeficiency virus 1; assay: Antiviral activity against HIV-1 infected in human MT-4 cells assessed as reduction in virus-induced cytopathic effect incubated for 5 days by MTT assay; format: functional, organism-based; settings: Human immunodeficiency virus 1, MT4, 120 h
[35] = Cytotoxicity against in human MT-4 cells after 5 days by MTT assay; format: cell-based, MT4; settings: time 5 day
[36] = Toxicity in pregnant mouse assessed as liver damage at 2 g/kg, ig monitored for 2 weeks by HE staining based assay; format: tissue-based; settings: in vivo, po, 2000 mg/kg, 336 h
[37] = AUC in Wistar rat at 5 mg/kg, po; format: ADME, organism-based; parameters: dose 5 mg/kg; settings: in vivo
[38] = Metabolic stability in human liver microsomes; format: ADME, Microsome
[39] = Selectivity index, ratio of CC50 for cytotoxicity against human MT-4 cells to EC50 for inhibition of HIV-1 p66/51 reverse transcriptase K103N mutant; format: toxicity, cell-based; settings: read-out: Ratio CC50/EC50
[40] = Toxicity in pregnant mouse assessed as heart damage at 2 g/kg, ig monitored for 2 weeks by HE staining based assay; format: tissue-based; settings: in vivo, po, 2000 mg/kg, 336 h
[41] = Toxicity in pregnant mouse assessed as spleen damage at 2 g/kg, ig monitored for 2 weeks by HE staining based assay; format: tissue-based; settings: in vivo, po, 2000 mg/kg, 336 h
[42] = Toxicity in healthy female mouse assessed as spleen damage at 2 g/kg, ig monitored for 2 weeks by HE staining based assay; format: tissue-based; settings: in vivo, po, 2000 mg/kg, 336 h
[43] = test system: Human immunodeficiency virus type 1 reverse transcriptase (Human immunodeficiency virus 1), Q72547 [K103N]; assay: Potency index, ratio of NVP EC50 to test compound EC50 for inhibition of HIV-1 p66/p51 reverse transcriptase K103N mutant
[44] = Selectivity index, ratio of CC50 for cytotoxicity against human MT-4 cells to EC50 for inhibition of HIV-1 p66/51 reverse transcriptase Y181C mutant; format: toxicity, cell-based; settings: read-out: Ratio CC50/EC50
[45] = AUC in Wistar rat at 1 mg/kg, iv; format: ADME, organism-based; parameters: dose 1 mg/kg; settings: in vivo
[46] = test system: Human immunodeficiency virus type 1 reverse transcriptase (Human immunodeficiency virus 1), Q72547 [K103N]; assay: Potency index, ratio of EFV EC50 to test compound EC50 for inhibition of HIV-1 p66/p51 reverse transcriptase K103N mutant
[47] = Inhibition of HIV-1 p66/p51 reverse transcriptase E138K mutant incubated for 40 mins by picogreen dye-based spectrofluorometric analysis; parameters: species or system Human immunodeficiency virus 1
[48] = Toxicity in healthy female mouse assessed as kidney damage at 2 g/kg, ig monitored for 2 weeks by HE staining based assay; format: tissue-based; settings: in vivo, po, 2000 mg/kg, 336 h
[49] = Selectivity index, ratio of CC50 for human MT-4 cells to EC50 for HIV-1 infected in MT-4 cells; format: toxicity, cell-based; settings: read-out: Ratio CC50/EC50
[50] = molecular target: Human immunodeficiency virus type 1 reverse transcriptase (Human immunodeficiency virus 1, UniProt Q72547, K103N); assay: Inhibition of HIV-1 p66/p51 reverse transcriptase K103N mutant incubated for 40 mins by picogreen dye-based spectrofluorometric analysis
[51] = AUCinfinity in Wistar rat at 1 mg/kg, iv; format: ADME, organism-based; parameters: route intravenous, time infinity, dose 1 mg/kg; settings: in vivo
[52] = Cmax in Wistar rat at 5 mg/kg, po; format: ADME, organism-based; parameters: route oral, dose 5 mg/kg; settings: in vivo
[53] = Acute toxicity in pregnant mouse assessed as increase in body weight at 2 g/kg, ig; settings: in vivo, po, 2000 mg/kg

Structure (SMILES): Cc1cnc(Nc2ccc(C#N)cc2)nc1Nc1c(F)cc(-c2ccc(C#N)cc2)cc1F
- k el [1]: 0.00025 s⁻¹
- EC50 [2]: 16.3 nM
- Activity [3]: Non-Toxic
- Activity [4]: Non-Toxic
- Activity [5]: Non-Toxic
- selectivity ratio [6]: > 17500
- MRT inf [7]: 0.86 h
- CLH [8]: 28.4 µL/min
- Activity [9]: Non-Toxic
- t1/2 [10]: 0.815 h
- Activity [11]: Non-Toxic
- Activity [12]: Non-Toxic
- Activity [13]: Non-Toxic
- Activity [14]: Non-Toxic
- half-life [15]: 1.18 h
- Activity [16]: Non-Toxic
- Activity [17]: Non-Toxic
- CLH [18]: 30.1 µL/min
- half-life [19]: 2.13 h
- Activity [20]: Toxic
- Activity [21]: Non-Toxic
- IC50 [22]: 13 nM
- t1/2 [23]: 0.768 h
- k el [24]: 0.000237 s⁻¹
- selectivity ratio [25]: > 34200
- EC50 [26]: 11.2 nM
- Activity [27]: Non-Toxic
- Tmax [28]: 0.67 h
- MRT inf [29]: 3.5 h
- AUC(0-inf) [30]: 130 ng·h/mL
- microsomal CLint [31]: 5 µL/min/mg
- Activity [32]: Non-Toxic
- Activity [33]: Non-Toxic
- EC50 [34]: 1 nM
- CC50 at 120 h [35]: > 285000 nM
- Activity [36]: Non-Toxic
- AUC [37]: 115 ng·h/mL
- k el [38]: 8.33e-05 s⁻¹
- selectivity ratio [39]: > 53200
- Activity [40]: Non-Toxic
- Activity [41]: Non-Toxic
- Activity [42]: Non-Toxic
- Ratio EC50 [43]: 17
- selectivity ratio [44]: > 25500
- AUC [45]: 1080 ng·h/mL
- Ratio EC50 [46]: 17
- EC50 [47]: 8.3 nM
- Activity [48]: Non-Toxic
- selectivity ratio [49]: > 208000
- EC50 [50]: 5.4 nM
- AUC(0-inf) [51]: 1090 ng·h/mL
- Cmax [52]: 38.4 ng/mL
- Activity [53]: Toxic
